*1 amine or outer side, *2 acyl side, *3 side chain or, on linkers, in order; H or OH if unused. Where a SMILES comes first, the peptide text is derived from it. Where no end group is shown, it is not given here. Side-chain parts run from the residue outwards. [ ]: non-standard residue; d: D form. The star is where a group is joined. C20 diacid = O=C(O)CCCCCCCCCCCCCCCCCCC(=O)*; γGlu = O=C(O)[C@H](CCC(=O)[*:2])N[*:1]; NMeI = CC[C@H](C)[C@H](NC)C(=O)O; Pentanoyl = CCCCC(=O)*; AEEA = NCCOCCOCC(=O)O; Aib = CC(C)(N)C(=O)O
Legend:
human CRF2a receptor = target: T1, human CRF2a receptor (Homo sapiens, UniProt Q13324); assay: Activity at human CRF2a receptor, cAMP functional assay in TeloHEAC cells; assay type: cell-based; conditions: TeloHEAC cells stably expressing human CRF2a receptor, relative to urocortin 2 (100 nM = 100%)
T1 construct: expressed in transfected cells; host or cells: TeloHEAC cells
T1 sequence (Q13324 1-411): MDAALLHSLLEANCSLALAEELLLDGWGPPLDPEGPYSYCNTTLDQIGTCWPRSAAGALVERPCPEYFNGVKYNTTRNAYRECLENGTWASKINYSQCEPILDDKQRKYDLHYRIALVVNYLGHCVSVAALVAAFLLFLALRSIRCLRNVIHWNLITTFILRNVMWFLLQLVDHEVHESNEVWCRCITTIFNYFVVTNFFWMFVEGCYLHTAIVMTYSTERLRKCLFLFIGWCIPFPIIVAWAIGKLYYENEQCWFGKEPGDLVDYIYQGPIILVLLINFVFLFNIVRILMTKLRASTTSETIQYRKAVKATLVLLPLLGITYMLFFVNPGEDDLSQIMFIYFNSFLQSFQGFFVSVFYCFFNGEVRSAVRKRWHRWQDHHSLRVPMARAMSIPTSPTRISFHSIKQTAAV
How it was run: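 TeloHEAC cells stably expressing human CRF2a (10000 cells/well, suspended in HBSS/20 mM HEPES with 2 mM IBMX) were exposed to compounds for 30 min at 37 °C. cAMP was read as the 665/620 nm fluorescence ratio after 1 h at room temperature. EC50 was derived relative to 100 nM urocortin 2, set as 100%.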

CFR1R receptor = target: T2, CFR1R receptor (Homo sapiens, UniProt P34998); assay: Activity at anti-target CFR1R receptor, cAMP assay in CRF1R-overexpression CHO-K1 cells; assay type: cell-based; conditions: 100% = Sauvagine at 100 nM
T2 construct: host or cells: CHO-K1 (clone 2)
T2 sequence (P34998 24-415): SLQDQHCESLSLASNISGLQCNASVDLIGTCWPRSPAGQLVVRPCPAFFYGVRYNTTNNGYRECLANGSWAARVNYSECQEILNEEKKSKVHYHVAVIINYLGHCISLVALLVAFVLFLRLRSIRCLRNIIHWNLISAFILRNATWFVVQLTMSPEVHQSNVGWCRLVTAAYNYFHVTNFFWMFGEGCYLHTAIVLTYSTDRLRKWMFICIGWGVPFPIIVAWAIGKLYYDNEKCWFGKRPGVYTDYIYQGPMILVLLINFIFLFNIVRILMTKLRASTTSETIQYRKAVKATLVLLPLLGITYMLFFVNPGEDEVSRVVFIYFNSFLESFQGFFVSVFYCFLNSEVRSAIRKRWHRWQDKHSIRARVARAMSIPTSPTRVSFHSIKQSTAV
How it was run: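 Clone 2 cells were cultured in F12 (Hams)/10% FBS/400 μg/ml G418 at 37° C./5% CO2, frozen in medium with 10% DMSO, and thawed vials used. The protocol followed the TeloHAEC procedure, with 4000 cells/well final and Sauvagine at 100 nM defining 100% activation.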

[1] = In vitro subcutaneous tissue supernatant (SCts) stability and metabolite identification, rat; assay type: in vitro ADME; set-up: remaining at 2 h: dose or concentration left out as unconfirmed; conditions: male, Sprague Dawley; rat subcutaneous tissue supernatant (SCts), 37° C, 2 h
[2] = Chemical stability in buffer (pH 7.4 / pH 4.5), % purity loss; assay type: physicochemical; conditions: 100 mM phosphate buffer pH 7.4; 40° C. vs 5° C.; 14 or 28 days
How it was run: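 Compounds dissolved at 10 mg/mL target in 100 mM phosphate (pH 7.4) or 100 mM acetate (pH 4.5) buffer for 1 h at room temperature, then centrifuged. Diluted supernatant stored at 5 °C or 40 °C for 14 or 28 days; % purity loss by LC-UV.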

[3] = Pharmacokinetics in male Sprague Dawley rats after subcutaneous administration; assay type: in vivo; conditions: plasma, rat, SC, 0.1 mg/kg
Sprague Dawley rats = assay: Effect on systolic blood pressure, telemetry in Sprague Dawley rats; assay type: in vivo, rat; conditions: 0.1 mg/kg SC
How it was run: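 Sprague Dawley rats with abdominal-aorta telemetry catheters, recovered ≥10 days, received 0.1 mg/kg SC of compound or vehicle. Systolic pressure recorded 1 h pre-dose as baseline, then continuously up to 48 hours, expressed as % change from baseline; duration of action is last time point with a BP effect (n=2).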

[4] = Pharmacokinetics in male Sprague Dawley rats after subcutaneous administration; assay type: in vivo; conditions: plasma, rat
[5] = target: T3, CRF1R (corticotropin-releasing factor receptor 1), on the CRF1R-overexpression CHO-K1 cell line clone 2 (UniProt P34998 24-415, limits assumed); assay: cell-based or functional assay
T3 sequence (looked up): T2 sequence (P34998 24-415)

## CCCCC(=O)N[C@H](C(=O)N[C@@H](CC(C)C)C(=O)N[C@@H](CO)C(=O)N[C@@H](CC(C)C)C(=O)N[C@@H](CC(=O)O)C(=O)N[C@@H](C(=O)N1CCC[C@H]1C(=O)N[C@H](C(=O)N[C@@H](CCCCN)C(=O)N[C@@H](CC(C)C)C(=O)N[C@@H](CCCCNC(=O)CC[C@H](NC(=O)CCCCCCCCCCCCCCCCCCC(=O)O)C(=O)O)C(=O)N[C@@H](CCCCN)C(=O)N[C@H](C(=O)N[C@@H](CC(C)C)C(=O)N[C@@H](CC(C)C)C(=O)N[C@@H](CCC(=O)O)C(=O)N[C@@H](CCC(N)=O)C(=O)N[C@@H](CCC(=O)O)C(=O)N[C@@H](CCCCN)C(=O)N[C@@H](CCC(N)=O)C(=O)N[C@@H](CCCCN)C(=O)N[C@@H](CCCCN)C(=O)N[C@@H](CCC(N)=O)C(=O)N[C@@H](CCCNC(=N)N)C(=O)N[C@@H](CCC(=O)O)C(=O)N[C@@H](CCC(N)=O)C(=O)N[C@@H](C)C(=O)N[C@@H](CCC(=O)O)C(=O)N[C@H](C(=O)N[C@@H](CC(N)=O)C(=O)NC(C)(C)C(=O)N[C@@H](CCC(N)=O)C(=O)N[C@H](C(=O)N[C@@H](CC(C)C)C(=O)N[C@@H](C)C(=O)N[C@@H](CCC(N)=O)C(=O)N[C@H](C(N)=O)C(C)C)[C@@H](C)CC)[C@@H](C)O)[C@@H](C)CC)[C@@H](C)CC)C(C)C)C(C)C [compound 219] (Pentanoyl-VLSLD[dV]PIKLK([γGlu-C20 diacid])KILLEQEKQKKQREQAETN[Aib]QILAQV-NH2)
Human CRF2a receptor
  EC50: 0.16 nM
CFR1R receptor
  Emax (% I): 48 % I
[1]
  remaining at 2 h: 71%
[2]
  Buffer stability pH 7.4 % purity loss: −2.1/Not Tested %
[3]
  AUC(0-t): 4520 ng·h/mL
  Cmax: 156 ng/mL
Sprague Dawley rats; 8 h, n=2
  Systolic blood pressure (Mean) % change from baseline, 8 h: −10%
Sprague Dawley rats; 12 h, n=2
  Systolic blood pressure (Mean) % change from baseline, 12 h: −13%
Sprague Dawley rats; 24 h, n=2
  Systolic blood pressure (Mean) % change from baseline, 24 h: −10%
Sprague Dawley rats; last time point with an effect on BP still observed
  Duration of action: >24 h
[4]; IV, 0.05 mg/kg
  AUC(0-t): 5320 ng·h/mL
  half-life: 6 h
[4]; SC, 0.1 mg/kg
  Tmax: 8 h
  half-life: 15 h

B1: peptide of SEQ ID NO: 229 (peptide)
peptide: [NMeI]VLSLD[dV]PIGLK([γGlu-C20 diacid])KILLEQEKQKKQREQAETN[Aib]QILAQV-NH2
modifications: N-terminus assumed
SMILES: CC[C@H](C)[C@H](NC)C(=O)N[C@H](C(=O)N[C@@H](CC(C)C)C(=O)N[C@@H](CO)C(=O)N[C@@H](CC(C)C)C(=O)N[C@@H](CC(=O)O)C(=O)N[C@@H](C(=O)N1CCC[C@H]1C(=O)N[C@H](C(=O)NCC(=O)N[C@@H](CC(C)C)C(=O)N[C@@H](CCCCNC(=O)CC[C@H](NC(=O)CCCCCCCCCCCCCCCCCCC(=O)O)C(=O)O)C(=O)N[C@@H](CCCCN)C(=O)N[C@H](C(=O)N[C@@H](CC(C)C)C(=O)N[C@@H](CC(C)C)C(=O)N[C@@H](CCC(=O)O)C(=O)N[C@@H](CCC(N)=O)C(=O)N[C@@H](CCC(=O)O)C(=O)N[C@@H](CCCCN)C(=O)N[C@@H](CCC(N)=O)C(=O)N[C@@H](CCCCN)C(=O)N[C@@H](CCCCN)C(=O)N[C@@H](CCC(N)=O)C(=O)N[C@@H](CCCNC(=N)N)C(=O)N[C@@H](CCC(=O)O)C(=O)N[C@@H](CCC(N)=O)C(=O)N[C@@H](C)C(=O)N[C@@H](CCC(=O)O)C(=O)N[C@H](C(=O)N[C@@H](CC(N)=O)C(=O)NC(C)(C)C(=O)N[C@@H](CCC(N)=O)C(=O)N[C@H](C(=O)N[C@@H](CC(C)C)C(=O)N[C@@H](C)C(=O)N[C@@H](CCC(N)=O)C(=O)N[C@H](C(N)=O)C(C)C)[C@@H](C)CC)[C@@H](C)O)[C@@H](C)CC)[C@@H](C)CC)C(C)C)C(C)C
[5]
  EC50 [nM] (cAMP, CRF1R-overexpression CHO-K1 cells): 203 nM
  Emax (% I) (cAMP, 100% = Sauvagine at 100 nM): 43 % I

B2: peptide of SEQ ID NO: 239 (peptide)
peptide: [NMeI]VLSLD[dV]PIKLK([AEEA-AEEA-γGlu-C20 diacid])KILLEQEKQK[Aib]QREQAETN[Aib]QILAQV-NH2
modifications: N-terminus assumed
SMILES: CC[C@H](C)[C@H](NC)C(=O)N[C@H](C(=O)N[C@@H](CC(C)C)C(=O)N[C@@H](CO)C(=O)N[C@@H](CC(C)C)C(=O)N[C@@H](CC(=O)O)C(=O)N[C@@H](C(=O)N1CCC[C@H]1C(=O)N[C@H](C(=O)N[C@@H](CCCCN)C(=O)N[C@@H](CC(C)C)C(=O)N[C@@H](CCCCNC(=O)COCCOCCNC(=O)COCCOCCNC(=O)CC[C@H](NC(=O)CCCCCCCCCCCCCCCCCCC(=O)O)C(=O)O)C(=O)N[C@@H](CCCCN)C(=O)N[C@H](C(=O)N[C@@H](CC(C)C)C(=O)N[C@@H](CC(C)C)C(=O)N[C@@H](CCC(=O)O)C(=O)N[C@@H](CCC(N)=O)C(=O)N[C@@H](CCC(=O)O)C(=O)N[C@@H](CCCCN)C(=O)N[C@@H](CCC(N)=O)C(=O)N[C@@H](CCCCN)C(=O)NC(C)(C)C(=O)N[C@@H](CCC(N)=O)C(=O)N[C@@H](CCCNC(=N)N)C(=O)N[C@@H](CCC(=O)O)C(=O)N[C@@H](CCC(N)=O)C(=O)N[C@@H](C)C(=O)N[C@@H](CCC(=O)O)C(=O)N[C@H](C(=O)N[C@@H](CC(N)=O)C(=O)NC(C)(C)C(=O)N[C@@H](CCC(N)=O)C(=O)N[C@H](C(=O)N[C@@H](CC(C)C)C(=O)N[C@@H](C)C(=O)N[C@@H](CCC(N)=O)C(=O)N[C@H](C(N)=O)C(C)C)[C@@H](C)CC)[C@@H](C)O)[C@@H](C)CC)[C@@H](C)CC)C(C)C)C(C)C
[5]
  EC50 [nM] (cAMP, CRF1R-overexpression CHO-K1 cells): > 250 nM
  Emax (% I) (cAMP, 100% = Sauvagine at 100 nM): 0 % I

B3: peptide of SEQ ID NO: 228 (peptide)
peptide: Pentanoyl-VLSLD[dV]PIGLK([γGlu-C20 diacid])KILLEQEKQKKQREQAETN[Aib]QILAQV-NH2
SMILES: CCCCC(=O)N[C@H](C(=O)N[C@@H](CC(C)C)C(=O)N[C@@H](CO)C(=O)N[C@@H](CC(C)C)C(=O)N[C@@H](CC(=O)O)C(=O)N[C@@H](C(=O)N1CCC[C@H]1C(=O)N[C@H](C(=O)NCC(=O)N[C@@H](CC(C)C)C(=O)N[C@@H](CCCCNC(=O)CC[C@H](NC(=O)CCCCCCCCCCCCCCCCCCC(=O)O)C(=O)O)C(=O)N[C@@H](CCCCN)C(=O)N[C@H](C(=O)N[C@@H](CC(C)C)C(=O)N[C@@H](CC(C)C)C(=O)N[C@@H](CCC(=O)O)C(=O)N[C@@H](CCC(N)=O)C(=O)N[C@@H](CCC(=O)O)C(=O)N[C@@H](CCCCN)C(=O)N[C@@H](CCC(N)=O)C(=O)N[C@@H](CCCCN)C(=O)N[C@@H](CCCCN)C(=O)N[C@@H](CCC(N)=O)C(=O)N[C@@H](CCCNC(=N)N)C(=O)N[C@@H](CCC(=O)O)C(=O)N[C@@H](CCC(N)=O)C(=O)N[C@@H](C)C(=O)N[C@@H](CCC(=O)O)C(=O)N[C@H](C(=O)N[C@@H](CC(N)=O)C(=O)NC(C)(C)C(=O)N[C@@H](CCC(N)=O)C(=O)N[C@H](C(=O)N[C@@H](CC(C)C)C(=O)N[C@@H](C)C(=O)N[C@@H](CCC(N)=O)C(=O)N[C@H](C(N)=O)C(C)C)[C@@H](C)CC)[C@@H](C)O)[C@@H](C)CC)[C@@H](C)CC)C(C)C)C(C)C
[5]
  EC50 [nM] (cAMP, CRF1R-overexpression CHO-K1 cells): 90.5 nM
  Emax (% I) (cAMP, 100% = Sauvagine at 100 nM): 62 % I

From patent publication US20260001928A1 (CORTERIA PHARMACEUTICALS, priority 2022, published 2026)
